For 23 molecules, pKa, Ki and IC50 results are on record in US9944618B2, “Inhibiting neurotransmitter reuptake” (Mayo Foundation for Medical Education and Research, priority 2013, dated 2018).

For orientation: pKa means the pH at which an ionisable group is half protonated. As a reminder, the Ki is the dissociation constant of the complex between target and ligand, obtained from inhibition or displacement. One may read the IC50 as the concentration needed to halve the response being measured.

Data set [1] can be described thus: pKa of basic centres (Table 1). The data set is classed as physicochemical.
Data set [2] concerns the target human serotonin transporter (Homo sapiens (Human), UniProt P31645). As to the kind of experiment: Human SERT (serotonin transporter) uptake assay. The note with it: read-out: hSERT Ki. The data set is classed as cell-based. An outline of the steps: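 HEK293F cells transfected with human SERT, about 60,000 per well, settled for ≥3 h at 37° C before compound addition. Uptake was followed with a fluorescent transporter dye in HBSS with 0.02 M HEPES. Background came from 10 μM fluoxetine, nomifensine was the control, n=3.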

The target in the next data set is hERG (Homo sapiens (Human), UniProt Q12809). As to the kind of experiment: Human ERG (hERG) assay, hERG currents in hERG-expressing CHO cells. The data set is classed as cell-based. The text has this:
The voltage-dependent potassium channel encoded by the human ether-a-go-go-related gene (hERG) is believed to play a key role in repolarisation of the ventricular cardiac action potential. Changes in its activity, caused either by inherited mutations of the gene sequence or pharmacological modification, can lead to prolongation of action potential duration. This can lead to prolongation of the QT interval recorded in man on an electrocardiogram and to a potentially fatal cardiac arrhythmia known as Torsades de Pointes.
hERG currents were recorded from hERG-expressing CHO cells. The biophysical and pharmacological characterization of the hERG currents in these cells was performed.

The target in data set [3] is human dopamine transporter (Homo sapiens (Human), UniProt Q01959). As to the kind of experiment: Human DAT (dopamine transporter) uptake assay. The data set is classed as cell-based. The note with it: read-out: hDAT Ki. In a few lines: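 Uptake inhibition was measured in HEK293F cells transfected with human DAT, plated at ~60,000 cells/well and settled ≥3 h at 37 °C. Compounds came from 10 mM DMSO stocks. Read-out was uptake of a fluorescent neurotransmitter transporter dye in HBSS with 0.02 M HEPES, with dye level given as % of vendor reconstitution; n=3.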

Data set [4] deals with human norepinephrine transporter (Homo sapiens (Human), UniProt P23975). As to the kind of experiment: Human NET (norepinephrine transporter) uptake assay. In kind it is cell-based. Conditions: read-out: hNET Ki. In a few lines:
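HEK293F cells transfected with human NET were thawed, plated at about 60,000 cells/well and held at 37 °C for at least 3 h. Compounds came from 10 mM DMSO stocks, with nomifensine as control, in 1×HBSS/0.02 M HEPES. Uptake was followed with a neurotransmitter transporter dye, dosed as % of vendor reconstitution, in triplicate.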

A further data set addresses CYP2D6 (Homo sapiens (Human), UniProt P10635). As to the kind of experiment: Cytochrome P450 inhibition assay, recombinant CYP2D6 (MAMC substrate). Conditions: recombinant enzyme. The data set is classed as in vitro ADME.
Another data set deals with CYP3A4 (Homo sapiens (Human), UniProt P08684). As to the kind of experiment: Cytochrome P450 inhibition assay, recombinant CYP3A4 (BFC substrate). In kind it is in vitro ADME. Conditions: recombinant enzyme.
Where [5] appears, read: first base, e.g., an aliphatic primary, secondary, or tertiary amine, read-out: pKa (Base 1).
Where [6] appears, read: second base in the same molecule (if present), read-out: pKa (Base 2).
Setting [7] is: selected reference compounds, HEK293F cells, Cheng-Prusoff.
Where [8] appears, read: selected reference compounds, CHO cells.

Read-outs that look alike come from different tables or passages of the source.

Chain of human serotonin transporter (P31645 whole entry): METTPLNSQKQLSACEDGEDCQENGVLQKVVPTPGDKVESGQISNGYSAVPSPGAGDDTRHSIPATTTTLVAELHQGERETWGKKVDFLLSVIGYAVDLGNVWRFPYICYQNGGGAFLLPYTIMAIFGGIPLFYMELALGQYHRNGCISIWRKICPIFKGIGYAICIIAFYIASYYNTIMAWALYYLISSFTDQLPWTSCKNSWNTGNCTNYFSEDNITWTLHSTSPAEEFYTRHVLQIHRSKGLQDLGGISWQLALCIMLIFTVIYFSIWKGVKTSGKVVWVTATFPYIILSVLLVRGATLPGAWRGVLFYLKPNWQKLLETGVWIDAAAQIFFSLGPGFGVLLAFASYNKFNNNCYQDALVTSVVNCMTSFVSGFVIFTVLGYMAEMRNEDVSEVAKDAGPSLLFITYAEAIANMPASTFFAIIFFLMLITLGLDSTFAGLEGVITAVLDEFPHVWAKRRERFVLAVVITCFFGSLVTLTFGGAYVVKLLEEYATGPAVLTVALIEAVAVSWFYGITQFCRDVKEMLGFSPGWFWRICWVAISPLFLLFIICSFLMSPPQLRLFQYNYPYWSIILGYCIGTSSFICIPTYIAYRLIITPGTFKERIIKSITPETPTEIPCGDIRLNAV
Chain of human dopamine transporter (Q01959 whole entry): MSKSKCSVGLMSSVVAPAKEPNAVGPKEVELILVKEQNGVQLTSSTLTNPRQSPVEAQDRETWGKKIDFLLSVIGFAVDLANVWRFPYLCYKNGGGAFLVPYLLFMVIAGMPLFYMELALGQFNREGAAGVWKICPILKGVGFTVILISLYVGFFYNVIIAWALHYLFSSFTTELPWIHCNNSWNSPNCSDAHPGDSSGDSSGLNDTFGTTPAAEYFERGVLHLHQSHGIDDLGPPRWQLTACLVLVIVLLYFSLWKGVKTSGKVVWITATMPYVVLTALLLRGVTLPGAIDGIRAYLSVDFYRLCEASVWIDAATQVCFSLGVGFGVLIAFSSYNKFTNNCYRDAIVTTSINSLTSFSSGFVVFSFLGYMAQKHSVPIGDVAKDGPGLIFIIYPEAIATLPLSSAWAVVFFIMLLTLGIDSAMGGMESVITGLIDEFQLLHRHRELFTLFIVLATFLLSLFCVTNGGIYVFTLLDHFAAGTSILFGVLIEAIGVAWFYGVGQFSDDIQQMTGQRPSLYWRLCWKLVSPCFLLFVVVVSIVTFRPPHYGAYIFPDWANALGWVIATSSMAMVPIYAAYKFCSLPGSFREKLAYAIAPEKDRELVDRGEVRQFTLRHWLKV
Chain of hERG (Q12809 whole entry): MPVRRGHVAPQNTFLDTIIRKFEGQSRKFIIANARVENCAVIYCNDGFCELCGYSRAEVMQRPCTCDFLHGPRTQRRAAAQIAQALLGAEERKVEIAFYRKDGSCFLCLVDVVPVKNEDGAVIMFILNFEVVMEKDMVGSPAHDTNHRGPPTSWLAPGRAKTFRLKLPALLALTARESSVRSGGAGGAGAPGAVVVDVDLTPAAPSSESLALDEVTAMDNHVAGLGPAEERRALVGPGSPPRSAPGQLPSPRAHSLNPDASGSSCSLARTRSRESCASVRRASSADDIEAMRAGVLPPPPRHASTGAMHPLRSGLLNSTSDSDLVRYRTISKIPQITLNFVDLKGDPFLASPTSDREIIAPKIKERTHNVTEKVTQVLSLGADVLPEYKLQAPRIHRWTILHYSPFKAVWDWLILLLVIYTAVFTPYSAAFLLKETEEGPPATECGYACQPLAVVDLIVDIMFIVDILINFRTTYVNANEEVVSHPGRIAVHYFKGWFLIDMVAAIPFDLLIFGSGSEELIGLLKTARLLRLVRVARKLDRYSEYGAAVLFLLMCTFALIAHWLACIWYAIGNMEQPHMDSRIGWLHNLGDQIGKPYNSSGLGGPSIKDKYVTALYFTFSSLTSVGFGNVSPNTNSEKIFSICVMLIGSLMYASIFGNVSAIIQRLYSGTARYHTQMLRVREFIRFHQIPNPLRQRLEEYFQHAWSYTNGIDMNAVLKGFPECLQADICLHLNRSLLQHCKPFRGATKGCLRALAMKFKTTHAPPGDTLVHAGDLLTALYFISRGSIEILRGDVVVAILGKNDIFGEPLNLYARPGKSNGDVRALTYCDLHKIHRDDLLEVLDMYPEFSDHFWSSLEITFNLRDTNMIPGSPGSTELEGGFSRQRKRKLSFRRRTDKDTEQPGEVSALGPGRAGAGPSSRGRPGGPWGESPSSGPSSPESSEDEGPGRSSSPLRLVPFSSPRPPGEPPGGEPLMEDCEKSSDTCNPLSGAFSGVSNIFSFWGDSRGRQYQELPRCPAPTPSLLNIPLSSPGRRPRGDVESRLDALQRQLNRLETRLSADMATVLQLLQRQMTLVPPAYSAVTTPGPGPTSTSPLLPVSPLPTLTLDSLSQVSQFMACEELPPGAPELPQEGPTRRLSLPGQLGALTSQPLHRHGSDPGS
Chain of CYP2D6 (P10635 whole entry): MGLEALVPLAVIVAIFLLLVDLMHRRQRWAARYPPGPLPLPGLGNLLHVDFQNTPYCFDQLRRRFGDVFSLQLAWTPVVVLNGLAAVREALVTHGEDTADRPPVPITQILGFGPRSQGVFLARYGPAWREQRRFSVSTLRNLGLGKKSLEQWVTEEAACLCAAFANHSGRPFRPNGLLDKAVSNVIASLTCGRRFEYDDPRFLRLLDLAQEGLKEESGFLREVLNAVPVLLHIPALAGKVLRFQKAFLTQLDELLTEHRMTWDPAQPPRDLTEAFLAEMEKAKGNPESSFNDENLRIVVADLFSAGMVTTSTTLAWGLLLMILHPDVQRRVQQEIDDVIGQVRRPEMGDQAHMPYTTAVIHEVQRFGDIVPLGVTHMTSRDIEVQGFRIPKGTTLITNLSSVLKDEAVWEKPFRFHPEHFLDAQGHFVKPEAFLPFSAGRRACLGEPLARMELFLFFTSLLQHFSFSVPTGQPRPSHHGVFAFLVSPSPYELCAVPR
Chain of human norepinephrine transporter (P23975 whole entry): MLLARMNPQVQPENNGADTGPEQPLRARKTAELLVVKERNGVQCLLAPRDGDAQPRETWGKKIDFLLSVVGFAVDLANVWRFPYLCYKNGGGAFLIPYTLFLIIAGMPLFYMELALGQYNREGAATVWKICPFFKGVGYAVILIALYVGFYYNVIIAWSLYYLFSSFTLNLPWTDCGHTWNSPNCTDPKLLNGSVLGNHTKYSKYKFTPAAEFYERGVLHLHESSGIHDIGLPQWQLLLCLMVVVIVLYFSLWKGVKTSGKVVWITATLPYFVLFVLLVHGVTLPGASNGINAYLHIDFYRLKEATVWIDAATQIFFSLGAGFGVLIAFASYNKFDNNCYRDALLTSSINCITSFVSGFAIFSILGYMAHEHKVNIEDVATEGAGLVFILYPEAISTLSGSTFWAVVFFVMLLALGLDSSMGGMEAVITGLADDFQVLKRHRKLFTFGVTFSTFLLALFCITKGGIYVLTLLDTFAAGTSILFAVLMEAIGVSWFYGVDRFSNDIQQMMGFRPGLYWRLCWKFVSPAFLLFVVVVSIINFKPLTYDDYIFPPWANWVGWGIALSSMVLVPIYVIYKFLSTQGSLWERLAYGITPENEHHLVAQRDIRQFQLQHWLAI
Chain of CYP3A4 (P08684 whole entry): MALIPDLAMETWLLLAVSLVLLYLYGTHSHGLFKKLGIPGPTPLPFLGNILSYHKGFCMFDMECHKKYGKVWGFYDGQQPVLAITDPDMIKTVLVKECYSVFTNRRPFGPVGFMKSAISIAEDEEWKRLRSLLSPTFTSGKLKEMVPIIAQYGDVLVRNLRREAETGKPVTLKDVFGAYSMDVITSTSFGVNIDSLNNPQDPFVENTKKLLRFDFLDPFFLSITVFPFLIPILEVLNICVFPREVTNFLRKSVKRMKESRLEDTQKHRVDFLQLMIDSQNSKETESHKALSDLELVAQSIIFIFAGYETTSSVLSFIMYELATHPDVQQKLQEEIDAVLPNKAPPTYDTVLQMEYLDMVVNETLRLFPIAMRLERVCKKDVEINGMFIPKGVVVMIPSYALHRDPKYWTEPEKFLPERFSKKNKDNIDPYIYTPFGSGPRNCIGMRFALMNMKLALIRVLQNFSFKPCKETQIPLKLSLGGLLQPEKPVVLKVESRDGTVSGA

`CNC[C@H](c1ccc2ccccc2c1)[C@H](OCc1cc(C)no1)c1ccccc1` [Compound 20]: the pKa in data set [1] (setting [5]) worked out at 9.6. Moreover, the Ki amounted to 3.2 nM in data set [2], 36.1 nM in data set [3] and 1.9 nM in data set [4]. Also, the IC50 on hERG (hERG-expressing CHO cells) was found to be 4700 nM.
With `CN(C)C[C@H](c1ccc2ccccc2c1)[C@H](O)c1ccccc1` [Compound 83], the pKa in data set [1] (setting [5]) was determined as 9. Inhibition on hERG (hERG-expressing CHO cells) was half-maximal at 4300 nM (IC50). In addition, the results for the Ki in data set [3] and in data set [4] were 46.7 nM and 15.7 nM, respectively.
`CNC[C@@H](c1ccc(Cl)c(Cl)c1)[C@@H](O)c1cccc(NS(=O)(=O)C(F)(F)F)c1` [Compound 121]: the pKa in data set [1] (setting [5]) is 9.4. Also, the Ki in data set [2] came out at 2850 nM; in data set [3], 5 nM; in data set [4], 270 nM. The IC50 on CYP2D6 and on CYP3A4 was 20000 nM throughout.
On to `CNC[C@@H](c1ccc2ccccc2c1)[C@@H](O)c1cncc(OC)c1` [Compound 122], for which the results for the pKa in data set [1] (setting [5]) and in data set [1] (setting [6]) were 9.6 and 4.5, respectively. The Ki in data set [2] turned out to be 124 nM; in data set [3] it was 49.6 nM; in data set [4], 273 nM. Besides, the IC50 at CYP2D6 is 3400 nM; at CYP3A4 it was 20000 nM.
On to `CNC[C@@H](c1ccc(Cl)c(Cl)c1)[C@@H](O)c1cccc(N2CCOCC2)c1` [Compound 125], for which the pKa turned out to be 9.4 in data set [1] (setting [5]) and 5.1 in data set [1] (setting [6]). Moreover, the Ki in data set [2] was determined as 725 nM; in data set [3] it was 65.3 nM; in data set [4] it was 371 nM. Besides, the IC50 at CYP2D6 was found to be 2400 nM; on CYP3A4, 4800 nM.
For `NC[C@@H](c1ccc2ccccc2c1)[C@@H](O)c1ccc(Cl)nc1` [Compound 126], the pKa in data set [1] (setting [5]) turned out to be 8.3. The Ki in data set [2] was 107 nM; in data set [3], 125 nM; in data set [4] it was 500 nM. Besides, the IC50 at CYP2D6 turned out to be 3900 nM; on CYP3A4, 20000 nM.
`CNC[C@H](c1ccc(Cl)c(Cl)c1)[C@@H](O)c1cccc(NS(=O)(=O)C(F)(F)F)c1` [Compound 127]: the pKa in data set [1] (setting [5]) was 9.4. The Ki in data set [2] turned out to be 3280 nM; in data set [3] it was 80.5 nM; in data set [4] it was 649 nM. Also, the IC50 at CYP2D6 stood at 15000 nM; at CYP3A4, 20000 nM.
As for `CNC[C@@H](c1ccc(Cl)c(Cl)c1)[C@@H](O)c1ccccc1[S+](C)[O-]` (stereo partly drawn) [Compound 128], in data set [1] (setting [5]), the pKa is 9.4. Further, the Ki came to 3040 nM in data set [2], 193 nM in data set [3] and 2630 nM in data set [4]. For the same molecule, the IC50 on CYP2D6 is 19000 nM; at CYP3A4, 20000 nM.
With `NC[C@@H](Cc1ccccc1O)c1ccc2ccccc2c1` [Compound 133], in data set [1] (setting [5]), the pKa turned out to be 9.4. Further, the inhibitory constant (Ki) in data set [2] amounted to 116 nM; in data set [3] it was 52.7 nM; in data set [4], 34.6 nM. Further, the results for the IC50 on CYP2D6 and at CYP3A4 were 580 nM and 10000 nM, respectively.
On to `CNC[C@H](c1ccc2ccccc2c1)[C@@H](O)c1cc(F)cc(F)c1` [Compound 141], for which the pKa in data set [1] (setting [5]) amounted to 9.6. Also, the values for the inhibitory constant (Ki) in data set [2], in data set [3] and in data set [4] were 296 nM, 91.9 nM and 32.6 nM, respectively. Moreover, the IC50 on CYP2D6 amounted to 370 nM; at CYP3A4, 20000 nM.
Take `CNC[C@@H](c1ccc2ccccc2c1)[C@H](O)c1cc(F)cc(F)c1` [Compound 142]: in data set [1] (setting [5]), the pKa is 9.6. Further, the Ki in data set [2] worked out at 208 nM; in data set [3] it was 95.3 nM; in data set [4], 13.8 nM. Moreover, the IC50 is 660 nM on CYP2D6 and 20000 nM on CYP3A4.
For `CNC[C@H](c1ccc(Cl)c(Cl)c1)[C@@H](O)c1ccccc1I` [Compound 152], the pKa in data set [1] (setting [5]) turned out to be 9.4. In addition, the Ki in data set [2] was found to be 935 nM; in data set [3] it was 31.8 nM; in data set [4] it was 126 nM. Moreover, the IC50 at CYP2D6 came out at 44 nM; at CYP3A4 it was 2000 nM.
For the molecule `CNC[C@@H](c1ccc(Cl)c(Cl)c1)[C@@H](O)c1cccc(OC)n1` [Compound 157], the pKa in data set [1] (setting [5]) amounted to 9.2. The Ki was determined as 140 nM in data set [2], 53.4 nM in data set [3] and 88.4 nM in data set [4]. Also, the IC50 is 580 nM at CYP2D6 and 20000 nM on CYP3A4.
As to `CCc1cccc([C@@H](O)[C@H](CNC)c2ccc(Cl)c(Cl)c2)c1` [Compound 159], the pKa in data set [1] (setting [5]) came to 9.4. In addition, the Ki in data set [2] amounted to 69.5 nM; in data set [3], 55.8 nM; in data set [4], 55.4 nM. The IC50 worked out at 170 nM at CYP2D6 and 2500 nM on CYP3A4.
Turning to `CNC[C@H](c1ccc(Cl)c(Cl)c1)[C@@H](O)c1cccc(Br)c1` [Compound 161], the pKa in data set [1] (setting [5]) was found to be 9.4. The figures for the Ki in data set [2], in data set [3] and in data set [4] were 616 nM, 103 nM and 38.5 nM, respectively. For the same molecule, the values for the IC50 at CYP2D6 and on CYP3A4 were 160 nM and 9200 nM, respectively.
For the molecule `CNC[C@@H](c1ccc(Cl)c(Cl)c1)[C@@H](O)c1cccc(Br)c1` [Compound 162], the pKa in data set [1] (setting [5]) is 9.4. The values for the Ki in data set [2], in data set [3] and in data set [4] were 806 nM, 110 nM and 108 nM, respectively. For the same molecule, the IC50 turned out to be 790 nM at CYP2D6 and 4900 nM on CYP3A4.
`CNC[C@H](c1ccc(Cl)c(Cl)c1)[C@@H](O)c1cccc(SC)c1` [Compound 163]: the pKa in data set [1] (setting [5]) was determined as 9.4. Further, the Ki in data set [2] came to 192 nM; in data set [3], 110 nM; in data set [4] it was 80 nM. The IC50 at CYP2D6 stood at 730 nM; on CYP3A4, 14000 nM.
In the case of `CNC[C@H](c1ccc(Cl)c(Cl)c1)[C@H](O)c1cncc(OC)c1` [Compound 166], the pKa in data set [1] (setting [5]) was determined as 9.3; in data set [1] (setting [6]), 4.5. Moreover, the figures for the Ki in data set [2], in data set [3] and in data set [4] were 36.9 nM, 132 nM and 92.4 nM, respectively. In addition, the figures for the IC50 on CYP2D6 and at CYP3A4 were 630 nM and 240 nM, respectively.
For `CNCC(c1ccc2ccccc2c1)[C@@H](O)c1ccc(Cl)nc1` (stereo partly drawn) [Compound 169], in data set [1] (setting [5]), the pKa worked out at 9.6. For the same molecule, the Ki came to 268 nM in data set [2], 146 nM in data set [3] and 212 nM in data set [4]. Besides, the results for the IC50 on CYP2D6 and on CYP3A4 were 1300 nM and 20000 nM, respectively.
For the molecule `CNC[C@H](c1ccc(Cl)c(Cl)c1)[C@@H](O)c1ccccc1S(C)(=O)=O` [Compound 170], the pKa in data set [1] (setting [5]) was 9.3. For the same molecule, the Ki in data set [2] is 2010 nM; in data set [3], 40 nM; in data set [4], 306 nM. Besides, the IC50 at CYP2D6 was found to be 380 nM; at CYP3A4 it was 4800 nM.
`CNC[C@@H](c1ccc(Cl)c(Cl)c1)[C@@H](O)c1cccnc1OC` [Compound 171]: the pKa in data set [1] (setting [5]) amounted to 9.2; in data set [1] (setting [6]) it was 3.2. The figures for the Ki in data set [2], in data set [3] and in data set [4] were 1850 nM, 92 nM and 454 nM, respectively. Besides, the IC50 on CYP2D6 was 2000 nM; at CYP3A4, 20000 nM.
As for `CNC[C@H](c1ccc2ccccc2c1)[C@H](O)c1ccccc1` [compound 173], the figures for the Ki in data set [2] (setting [7]), in data set [3] (setting [7]) and in data set [4] (setting [7]) were 1.2 nM, 4.6 nM and 0.5 nM, respectively. This molecule returned an IC50 at hERG (setting [8]) of 8800 nM.
Taken in the same sequence, the figures for `CNC[C@@H](c1ccc2ccccc2c1)[C@H](O)c1ccccc1` [compound 180] were 14.8 nM, 47.5 nM, 2.9 nM and 32000 nM.
